Experimental data from ChEMBL document CHEMBL3286137, “Design, synthesis and structure-activity relationships of novel 4-phenoxyquinoline derivatives containing pyridazinone moiety as potential antitumor agents” (Eur J Med Chem, 2014).

Legend:
cells [1] = settings: Homo sapiens, NCI-H460, 72 h
cells [2] = settings: Homo sapiens, MKN-45, 72 h
A549 = assay: cells; settings: Homo sapiens, A549, 72 h
HT-29 = assay: cells; settings: Homo sapiens, HT-29, 72 h
[3] = Cytotoxicity against human U87MG cells assessed as inhibition of cell growth after 72 hrs by MTT assay; assay type: functional, cell-based, U-87MG ATCC; settings: U-87 MG

Compound	IC50 (cells [1]) [nM]	IC50 (cells [2]) [nM]	IC50 (A549) [nM]	IC50 (HT-29) [nM]	IC50 [3] [nM]
COc1cc2c(Oc3ccc(NC(=O)c4nn(-c5ccc(F)c(F)c5)c(=O)cc4C)cc3F)ccnc2cc1OCCCN1CCOCC1	390	90	320	160	–
COc1ccc(-n2nc(C(=O)Nc3ccc(Oc4ccnc5cc(OCCCN6CCC(C)CC6)c(OC)cc45)c(F)c3)c(C)cc2=O)cc1	4650	400	1100	5450	2840
COc1cc2c(Oc3ccc(NC(=O)c4nn(-c5ccc(Cl)cc5)c(=O)cc4C)cc3F)ccnc2cc1OCCCN1CCC(C)CC1	370	150	210	180	1350
COc1cc2c(Oc3ccc(NC(=O)c4nn(-c5ccc(Cl)cc5Cl)c(=O)cc4C)cc3F)ccnc2cc1OCCCN1CCC(C)CC1	250	120	200	170	–
COc1cc2c(Oc3ccc(NC(=O)c4nn(-c5ccccc5)c(=O)cc4C)cc3F)ccnc2cc1OCCCN1CCN(C)CC1	360	130	350	270	2120
COc1cc2c(Oc3ccc(NC(=O)c4nn(-c5ccccc5C)c(=O)cc4C)cc3F)ccnc2cc1OCCCN1CCN(C)CC1	3420	1630	2830	3790	3720
COc1cc2c(Oc3ccc(NC(=O)c4nn(-c5ccccc5C(F)(F)F)c(=O)cc4C)cc3F)ccnc2cc1OCCCN1CCN(C)CC1	240	40	170	170	1170
COc1cc2c(Oc3ccc(NC(=O)c4nn(-c5ccccc5OC(F)(F)F)c(=O)cc4C)cc3F)ccnc2cc1OCCCN1CCN(C)CC1	260	100	130	180	1440
COc1cc2c(Oc3ccc(NC(=O)c4nn(-c5cccc(F)c5)c(=O)cc4C)cc3F)ccnc2cc1OCCCN1CCN(C)CC1	260	120	150	250	1590
COc1ccc(-n2nc(C(=O)Nc3ccc(Oc4ccnc5cc(OCCCN6CCN(C)CC6)c(OC)cc45)c(F)c3)c(C)cc2=O)cc1	3660	1230	2200	3520	–
COc1cc2c(Oc3ccc(NC(=O)c4nn(-c5ccc(Cl)cc5)c(=O)cc4C)cc3F)ccnc2cc1OCCCN1CCN(C)CC1	440	40	270	320	1560
COc1cc2c(Oc3ccc(NC(=O)c4nn(-c5ccc(F)c(F)c5)c(=O)cc4C)cc3F)ccnc2cc1OCCCN1CCN(C)CC1	190	120	130	170	–
COc1cc2c(Oc3ccc(NC(=O)c4nn(-c5ccccc5)c(=O)cc4C)cc3F)ccnc2cc1OCCCN1CCCC1	460	120	370	220	1100
COc1cc2c(Oc3ccc(NC(=O)c4nn(-c5ccccc5C)c(=O)cc4C)cc3F)ccnc2cc1OCCCN1CCCC1	1590	760	1300	1400	2960
COc1cc2c(Oc3ccc(NC(=O)c4nn(-c5ccccc5C(F)(F)F)c(=O)cc4C)cc3F)ccnc2cc1OCCCN1CCCC1	210	100	130	140	1010
COc1cc2c(Oc3ccc(NC(=O)c4nn(-c5ccccc5OC(F)(F)F)c(=O)cc4C)cc3F)ccnc2cc1OCCCN1CCCC1	210	60	140	180	1280
COc1cc2c(Oc3ccc(NC(=O)c4nn(-c5cccc(F)c5)c(=O)cc4C)cc3F)ccnc2cc1OCCCN1CCCC1	280	120	170	250	1700
COc1ccc(-n2nc(C(=O)Nc3ccc(Oc4ccnc5cc(OCCCN6CCCC6)c(OC)cc45)c(F)c3)c(C)cc2=O)cc1	3610	1290	2770	3300	2960
COc1cc2c(Oc3ccc(NC(=O)c4nn(-c5ccc(Cl)cc5)c(=O)cc4C)cc3F)ccnc2cc1OCCCN1CCCC1	360	150	230	260	1430

Compound	IC50 (cells [1]) [nM]	IC50 (cells [2]) [nM]	IC50 (A549) [nM]	IC50 (HT-29) [nM]	IC50 [3] [nM]
COc1cc2c(Oc3ccc(NC(=O)c4nn(-c5ccc(F)c(F)c5)c(=O)cc4C)cc3F)ccnc2cc1OCCCN1CCCC1	170	80	220	150	1400
COc1cc2c(Oc3ccc(NC(=O)c4nn(-c5ccccc5)c(=O)cc4C)cc3F)ccnc2cc1OCCCN1CCCCC1	280	160	150	160	1370
COc1cc2c(Oc3ccc(NC(=O)c4nn(-c5ccccc5C)c(=O)cc4C)cc3F)ccnc2cc1OCCCN1CCCCC1	3220	1310	1920	2810	2500
COc1cc2c(Oc3ccc(NC(=O)c4nn(-c5ccccc5C(F)(F)F)c(=O)cc4C)cc3F)ccnc2cc1OCCCN1CCCCC1	210	90	140	170	1150
COc1cc2c(Oc3ccc(NC(=O)c4nn(-c5ccccc5OC(F)(F)F)c(=O)cc4C)cc3F)ccnc2cc1OCCCN1CCCCC1	230	40	120	190	1300
COc1cc2c(Oc3ccc(NC(=O)c4nn(-c5cccc(F)c5)c(=O)cc4C)cc3F)ccnc2cc1OCCCN1CCCCC1	360	130	250	290	1500
COc1ccc(-n2nc(C(=O)Nc3ccc(Oc4ccnc5cc(OCCCN6CCCCC6)c(OC)cc45)c(F)c3)c(C)cc2=O)cc1	3730	330	1500	3200	1800
COc1cc2c(Oc3ccc(NC(=O)c4nn(-c5ccc(Cl)cc5)c(=O)cc4C)cc3F)ccnc2cc1OCCCN1CCCCC1	460	230	320	360	1400
COc1cc2c(Oc3ccc(NC(=O)c4nn(-c5ccc(Cl)cc5Cl)c(=O)cc4C)cc3F)ccnc2cc1OCCCN1CCCCC1	390	80	220	290	1800
COc1cc2c(Oc3ccc(NC(=O)c4nn(-c5ccccc5C)c(=O)cc4C)cc3F)ccnc2cc1OCCCN1CCC(C)CC1	2260	1290	1460	2810	2240
COc1cc2c(Oc3ccc(NC(=O)c4nn(-c5ccccc5C(F)(F)F)c(=O)cc4C)cc3F)ccnc2cc1OCCCN1CCC(C)CC1	200	60	160	180	1120
COc1cc2c(Oc3ccc(NC(=O)c4nn(-c5ccccc5OC(F)(F)F)c(=O)cc4C)cc3F)ccnc2cc1OCCCN1CCC(C)CC1	290	70	90	250	800
COc1cc2c(Oc3ccc(NC(=O)c4nn(-c5cccc(F)c5)c(=O)cc4C)cc3F)ccnc2cc1OCCCN1CCC(C)CC1	250	140	250	300	1800
COc1cc2c(Oc3ccc(NC(=O)c4nn(-c5ccccc5)c(=O)cc4C)cc3F)ccnc2cc1OCCCN1CCOCC1	450	110	720	350	1600
COc1cc2c(Oc3ccc(NC(=O)c4nn(-c5ccccc5C)c(=O)cc4C)cc3F)ccnc2cc1OCCCN1CCOCC1	1380	270	530	1010	2000
COc1cc2c(Oc3ccc(NC(=O)c4nn(-c5ccccc5OC(F)(F)F)c(=O)cc4C)cc3F)ccnc2cc1OCCCN1CCOCC1	200	90	120	170	1300
COc1cc2c(Oc3ccc(NC(=O)c4nn(-c5cccc(F)c5)c(=O)cc4C)cc3F)ccnc2cc1OCCCN1CCOCC1	290	110	550	270	1980
COc1ccc(-n2nc(C(=O)Nc3ccc(Oc4ccnc5cc(OCCCN6CCOCC6)c(OC)cc45)c(F)c3)c(C)cc2=O)cc1	1770	260	1500	1230	–
COc1cc2c(Oc3ccc(NC(=O)c4nn(-c5ccc(Cl)cc5)c(=O)cc4C)cc3F)ccnc2cc1OCCCN1CCOCC1	380	70	330	260	1970
